What was measured:
[1] = Regression / mixed model of Toxicity Index on demographic variables and received dose; format: in vivo, human
Experimental: (§1) A preliminary data analysis focused on the relationship between the Toxicity Index and the recipient subjects' demographic/genetic information. […] Univariate linear regression analysis was conducted first to find significant covariates in predicting the Toxicity Index in one of five cycles, then multivariable analysis was used to determine the best model in fitting the data. A mixed model for repeated measurement was implemented in modeling Toxicity Index in the first five cycles, and also in all cycles. Autoregressive covariance structure was used in the mixed model. SAS and Minitab were used in the analysis.
Covariates in the analysis included recoded binary demographic variables (sex, race, site, grade, stage) and recoded binary genetic variables.
Multivariable regression analysis was used to find the best model in predicting the Toxicity Index in each of the first five cycles.
A mixed model for repeated measurements was implemented to find the best model in fitting the longitudinal data. Autoregressive covariance structure was used in the mixed model. Toxicity Indexes in the first five cycles were included in the analysis.
To model Toxicity Indexes in all 21 cycles, a mixed model was used to find the best model. For the paclitaxel, Received dose and MAPT_H14 were significant fixed effects in predicting the longitudinal Toxicity Index in all cycles.

[2] = Toxicity Index (TI) computed from graded treatment-attributable adverse events (NCI CTC) of recipient subjects, per treatment cycle; format: in vivo, human; design: key to Toxicity Index TI9 Mean / Toxicity Index TI12 Mean / Toxicity Index TI13 Mean / Toxicity Index TI16 Mean / Toxicity Index TI17 Mean / Toxicity Index TI19 Mean / Toxicity Index TI1 Mean / Toxicity Index TI2 Mean / Toxicity Index TI4 Mean: weighted sum of ordered recoded CTC grades; ≥3 = DLT; conditions: mean over recipient subjects; for Toxicity Index TI1 Mean: cycle 1, score between 0 and 5; for Toxicity Index TI2 Mean: cycle 2; for Toxicity Index TI3 Mean: cycle 3; for Toxicity Index TI4 Mean: cycle 4; for Toxicity Index TI5 Mean: cycle 5; for Toxicity Index TI6 Mean: cycle 6; for Toxicity Index TI7 Mean: cycle 7; for Toxicity Index TI8 Mean: cycle 8; for Toxicity Index TI9 Mean: cycle 9; for Toxicity Index TI10 Mean: cycle 10; for Toxicity Index TI11 Mean: cycle 11; for Toxicity Index TI12 Mean: cycle 12; for Toxicity Index TI13 Mean: cycle 13; for Toxicity Index TI14 Mean: cycle 14; for Toxicity Index TI15 Mean: cycle 15; for Toxicity Index TI16 Mean: cycle 16; for Toxicity Index TI17 Mean: cycle 17; for Toxicity Index TI18 Mean: cycle 18; for Toxicity Index TI19 Mean: cycle 19; for Toxicity Index TI20 Mean: cycle 20; for Toxicity Index TI21 Mean: cycle 21
From the text: Recipient subject-specific characteristics, medical and treatment histories, doses of experimental agents, and graded toxicities were extracted from case report forms. Toxicity data were represented for each subject as a set of treatment-attributable adverse events, each graded (0, 1, 2, 3, or 4) according to NCI Common Toxicity Criteria (CTC). The term “toxicity profile” as used herein refers to the collection of graded toxicities observed for an individual recipient subject.
To include all trials in the same analysis, a common definition of dose limiting toxicity (DLT) was adopted. Specifically, DLT was defined as occurring whenever any one of the following was observed: grade 4 hematological toxicity (grade 4 neutropenia or thrombocytopenia of any duration); a grade 3 or 4 non-hematological toxicity (excluding nausea, vomiting, and alopecia); febrile neutropenia of any grade.
To identify risk factors and other pre-trial characteristics of interest, several ways of summarizing the toxicity profile of a given recipient subject into a single measure of overall severity were examined as described, for example in Rogatko et al., (2004) Clin. Cancer Res. 10:4645-4651, incorporated herein by reference in its entirety. A summary measure that takes into account all observed toxicity grades rather than just the most severe one was used. The summary measure, the Toxicity Index (TI), is computed according to the following algorithm: • (a) recode each hematologic toxicity as the maximum of 0 and the observed grade minus one (so that a grade 3 toxicity is dose limiting irrespective of whether or not it is hematologic). • (b) Let the toxicity grades in a subject's recoded toxicity profile be represented in descending order by the sequence X1≧X2≧ . . . ≧Xn • (c) Calculate the subject's TI score as the weighted sum of the ordered toxicity grades:
Any score greater than or equal to 3 corresponds to a DLT according to the definition given above, and the maximum toxicity grade is the integer part of the final score. […] All toxicity grades are taken into account, though lower grades will contribute less to the final score.
The score is a number between 0 and 5.
Thirty (30) recipient subjects already receiving treatment with paclitaxel were screened for the presence of SNPs in the CYP2C8 and TUBB loci. Clinical data from each of the recipient subjects was used to first calculate a Toxicity Index (TI) value for each individual according to the method presented in Example 1, above. The genotype for each recipient subject with regard to the SNPs of CYP2C8 and TUBB was determined using SNPWARE™ and single base extension according to the methods of Example 4, above.
as §1

SMILES	Toxicity Index TI1 Mean [2]	Toxicity Index TI2 Mean [2]	Toxicity Index TI3 Mean [2]	Toxicity Index TI4 Mean [2]	Toxicity Index TI5 Mean [2]	Toxicity Index TI6 Mean [2]	Toxicity Index TI7 Mean [2]	Toxicity Index TI8 Mean [2]	Toxicity Index TI9 Mean [2]	Toxicity Index TI10 Mean [2]	Toxicity Index TI11 Mean [2]	Toxicity Index TI12 Mean [2]	Toxicity Index TI13 Mean [2]	Toxicity Index TI14 Mean [2]	Toxicity Index TI15 Mean [2]	Toxicity Index TI16 Mean [2]	Toxicity Index TI17 Mean [2]	Toxicity Index TI18 Mean [2]	Toxicity Index TI19 Mean [2]	Toxicity Index TI20 Mean [2]	also measured
CC(=O)O[C@@]12CO[C@@H]1C[C@H](O)[C@@]1(C)C(=O)[C@H](O)C3=C(C)[C@@H](OC(=O)[C@H](O)[C@@H](NC(=O)OC(C)(C)C)c4ccccc4)C[C@@](O)([C@@H](OC(=O)c4ccccc4)[C@H]21)C3(C)C (relative stereo) [Docetaxel, Benzenepropanoic acid, β-(((1,1-dimethylethoxy)carbonyl)amino)-α-hydroxy-, 12b-(acetyloxy)-12-(benzoyloxy)-2a,3,4,4a,5,6,9,10,11,12,12a,12b-dodecahydro-4,6,11-trihydroxy-4a,8,13,13-tetramethyl-5-oxo-7,11-methano-1H-cyclodeca(3,4)benz(1,2-b)oxet-9-yl ester trihydrate, (2aR-(2aα,4β,4aβ,6β,9(αR*,βS),11α,12α,12aα,12bα))-]	2.727	2.840	2.737	3.058	2.669	2.875	2.646	2.804	2.438	2.623	2.297	2.090	2.404	2.171	2.083	1.875	1.875	1.875	2.625	1.875	Fixed effect Estimate, Grade 2 ([1]; mixed model, longitudinal Toxicity Index in all cycles, Pr > |t| 0.0027): −0.9840; Fixed effect Estimate, Grade 2 ([1]; mixed model, longitudinal Toxicity Index in first five cycles, Pr > |t| 0.0106): −1.0426; Para. Est., TI3 vs Site (multivariable) ([1]; multivariable regression with MAPT_H13, cycle 3, Prostate Gland = 1, Others = 0, P-value 0.001): 2.365; Para. Est., TI3 vs Grade ([1]; univariate linear regression, cycle 3, Poorly Dif = 1, Others = 0, P-value 0.006): −1.609; Para. Est., TI3 vs Site ([1]; univariate linear regression, cycle 3, Prostate Gland = 1, Others = 0, P-value 0.046): 1.962; Toxicity Index TI21 Mean [2]: 1.875
CC(=O)O[C@H]1C(=O)[C@@]2(C)[C@H]([C@H](OC(=O)c3ccccc3)[C@]3(O)C[C@H](OC(=O)[C@H](O)[C@@H](NC(=O)c4ccccc4)c4ccccc4)C(C)=C1C3(C)C)[C@]1(OC(C)=O)CO[C@@H]1C[C@@H]2O [Paclitaxel, (2aR,4S,4aS,6R,9S,11S,12S,12aR,12bS)-1,2a,3,4,4a,6,9,10,11,12,12a,12b-Dodecahydro-4,6,9,11,12,12b-hexahydroxy-4a,8,13,13-tetramethyl-7,11-methano-5H-cyclodeca(3,4)benz(1,2-b)oxet-5-one 6,12b-diacetate, 12-benzoate, 9-ester with (2R,3S)-N-benzoyl-3-phenylisoserine]	2.175	2.399	2.491	2.787	2.696	2.580	2.529	2.206	2.292	1.875	2.583	1.750	1.875	1.875	1.875	2.583	2.583	2.583	2.583	2.944	Fixed effect Estimate, Received Dose2 ([1]; mixed model, longitudinal Toxicity Index in all 21 cycles, Pr > |t| 0.0244): 0.002363; Toxicity Index TI21 Mean [2]: 3.469
